Source: patent US20240041795A1, “Cyclic Ketone Compounds and Applications Thereof” (priority 2021, published 2024)

Assays:
male SD rats = assay: Antagonism of compounds against general anesthesia maintained by continuous infusion of propofol (anesthesia recovery/awakening time); type: in vivo; conditions: for The average of awakening time: SD rats
Experimental: The preparation method was the same as that of Example 1.
24 male SD rats with a body weight range of 250-300 g were randomly divided into 4 groups, with 6 rats in each group. Continuous anesthesia induction was performed using propofol (22.11 mg/kg, 1.5×EDO, and then maintained at a rate of 1 mg/(kg min) for 30 min. After drug withdrawal, compound 85 at doses of 10 mg/kg, 20 mg/kg, and 50 mg/kg, as well as 50 mg/kg of the test compound solutions (using medium and long chain fat emulsion injection as solvent) or equal volume of medium and long chain fat emulsion injection was immediately injected, respectively, and the anesthesia recovery time of the […] after stopping the medication was observed and recorded. Among them, the anesthesia recovery time refers to the time from the cessation of propofol infusion to the recovery of the righting reflex in mice.

Male ICR mice = assay: Antagonism of test compounds against general anesthesia induced by general anesthetics (total anesthesia time, loss to recovery of righting reflex); type: in vivo
Experimental: The preparation method: A suitable amount of the compound to be tested was weighed, to which was added a suitable amount of medium and long chain fat emulsion injection with a pipette, and thus a 50 mmol/L solution of the test compound was prepared. After filtering with a 0.22 μm microporous membrane, the solution was immediately used.
Male ICR mice weighing 25 g±1 g were randomly divided into 8 groups, with 8 mice in each group. […] After maintaining the disappearance of the mouse righting reflex for 30 seconds, the solution of each test compound (50 mg/kg, using medium and long chain fat emulsion injection as solvent) or equal volume of medium and long chain fat emulsion injection was respectively injected, and the total anesthesia time of the mice was observed and recorded. Among them, the total anesthesia time refers to the time from the disappearance of the mouse righting reflex to the recovery of the mouse righting reflex.

[1] = test drug 50 mg/kg after withdrawal of propofol infusion (1 mg/(kg min) for 30 min)
[2] = Propofol 22.11 mg/kg (1.5×ED50) i.v. tail vein induction, test compound 50 mg/kg in fat emulsion injected after 30 s loss of righting reflex
[3] = Etomidate 4.48 mg/kg (2×ED50) i.v. tail vein induction, test compound 50 mg/kg in fat emulsion injected after 30 s loss of righting reflex
[4] = Ketamine induction (dose not given), test compound 50 mg/kg in fat emulsion
[5] = Remimazolam 57.34 mg/kg (1.5×ED50) i.v. tail vein induction, test compound 50 mg/kg in fat emulsion injected after 30 s loss of righting reflex

Compound	The average of awakening time (male SD rats; [1]) [min]	The average of total anesthesia time (Male ICR mice; [2]) [min]	The average of total anesthesia time (Male ICR mice; [3]) [min]	The average of total anesthesia time (Male ICR mice; [5]) [min]	also measured
CC12CCC(C(C(=O)O)C1=O)C2(C)C (stereo not drawn) [Compound 67]	3.04 ± 0.18	2.14 ± 0.32	–	–	–
CSC1C(=O)C2(C)CCC1C2(C)C (stereo not drawn) [Compound 68]	–	4.05 ± 0.15	2.11 ± 0.54	–	–
CC1(CBr)C2CCC1(CBr)C(=O)C2Br (stereo not drawn) [Compound 70]	–	–	–	–	The average of total anesthesia time (Male ICR mice; [4]): 3.49 ± 0.40 min
CC12CCC(CC1=O)C2(C)C (stereo not drawn) [Compound 85]	0.36 ± 0.98	0.47 ± 0.21	0.46 ± 0.25	0.45 ± 0.21	Reversal of the anesthesia maintenance effect of continuous infusion of propofol (male SD rats; continuous propofol infusion, 10, 20, 50 mg/kg): could dose-dependently shorten the anesthesia recovery time of rats; The average of awakening time (male SD rats; test drug 10 mg/kg after withdrawal of propofol infusion (1 mg/(kg min) for 30 min)): 4.11 ± 1.22 min; The average of awakening time (male SD rats; test drug 20 mg/kg after withdrawal of propofol infusion (1 mg/(kg min) for 30 min)): 3.68 ± 1.12 min; The average of total anesthesia time (Male ICR mice; [4]): 3.01 ± 0.45 min
CC12CCC(C(Br)C1=O)C2(C)C (stereo not drawn) [Compound 86]	–	1.56 ± 0.21	–	1.49 ± 0.62	–
CC12CCC(C(I)C1=O)C2(C)C (stereo not drawn) [Compound 87]	–	–	1.56 ± 0.45	0.84 ± 0.78	–
CC12CCC(C(=O)C1=O)C2(C)C (stereo not drawn) [Compound 104]	–	–	–	–	The average of total anesthesia time (Male ICR mice; [4]): 2.67 ± 0.30 min
CC1(Br)C(=O)C2(C)CCC1C2(C)C (stereo not drawn) [Compound 120]	–	–	–	–	The average of total anesthesia time (Male ICR mice; [4]): 3.72 ± 0.24 min
CC12CCC(CC1=O)C2(C)CBr (stereo not drawn) [Compound 130]	3.41 ± 0.52	1.79 ± 0.09	–	–	–
CC12CCC(CC1=O)C2(C)CI (stereo not drawn) [Compound 135]	–	–	1.72 ± 0.50	–	–
CC12CCC(CC1=O)C2(C)CC(=O)O (stereo not drawn) [Compound 139]	–	–	2.64 ± 0.89	1.29 ± 0.63	–
CC12CCC(CC1=O)C2(C)CO (stereo not drawn) [Compound 140]	–	4.13 ± 0.20	2.05 ± 0.33	1.16 ± 0.92	–
CC12CCC(CC1=O)C2(C)CBr (stereo not drawn) [Compound 150]	–	1.26 ± 0.17	–	–	–
CC12CCC(CC1=O)C2(C)CO (stereo not drawn) [Compound 157]	–	2.52 ± 0.21	2.08 ± 0.32	–	–
CCC1(C)C2CCC1(C)C(=O)C2 (stereo not drawn) [Compound 163]	1.33 ± 0.79	1.51 ± 0.51	2.17 ± 0.60	0.77 ± 0.02	–
CC12CCC(C(Cl)C1=O)C2(C)C (stereo not drawn) [Compound 168]	–	–	–	0.86 ± 0.42	–
CC1(C)[C@H]2CC[C@]1(C)C(=O)C2 [Compound 171]	0.34 ± 0.89	0.42 ± 0.32	1.97 ± 0.07	0.73 ± 0.57	The average of total anesthesia time (Male ICR mice; [4]): 3.64 ± 0.89 min
CC12CCC(CC1=O)C2(C)C(Cl)Br (stereo not drawn) [Compound 262]	–	–	–	–	The average of total anesthesia time (Male ICR mice; [4]): 3.92 ± 0.83 min
CC1(C)C2CCC1(CCl)C(=O)C2 (stereo not drawn) [Compound 269]	3.29 ± 0.81	2.15 ± 0.98	–	1.39 ± 0.45	–

Compound	The average of awakening time (male SD rats; [1]) [min]	The average of total anesthesia time (Male ICR mice; [2]) [min]	The average of total anesthesia time (Male ICR mice; [3]) [min]	The average of total anesthesia time (Male ICR mice; [5]) [min]	also measured
CC1(C)C2CCC1(CBr)C(=O)C2 (stereo not drawn) [Compound 270]	–	2.49 ± 0.15	2.50 ± 0.99	1.01 ± 0.05	–
CC1(C)C2CCC1(CO)C(=O)C2 (stereo not drawn) [Compound 273]	–	1.43 ± 0.43	–	–	–
CC12CCC(Br)(CC1=O)C2(C)C (stereo not drawn) [Compound 561]	–	–	2.03 ± 0.61	–	–
CC12CCC(O)(CC1=O)C2(C)C (stereo not drawn) [Compound 563]	–	2.62 ± 0.18	–	–	–
CC12CCC(F)(CC1=O)C2(C)C (stereo not drawn) [Compound 565]	2.58 ± 0.56	2.40 ± 0.89	0.87 ± 0.93	–	The average of total anesthesia time (Male ICR mice; [4]): 3.46 ± 0.15 min
CC12CCC(CC(=O)O)(CC1=O)C2(C)C (stereo not drawn) [Compound 572]	–	–	–	0.85 ± 0.37	–
CC1C(=O)CC2(C(C)C)CC12 (stereo not drawn) [Compound 580]	2.76 ± 0.20	3.12 ± 0.12	1.36 ± 0.84	0.69 ± 0.25	–
CC1C(=O)C2(C)CCC1(C)C2 (stereo not drawn) [Compound 581]	4.66 ± 0.60	2.22 ± 0.27	1.07 ± 0.32	1.32 ± 0.31	–
CC1CCC(C(C)C)CC1=O (stereo not drawn) [Compound 582]	0.96 ± 0.23	1.39 ± 0.08	1.27 ± 0.83	1.49 ± 0.21	–
CC12CC(Br)C(CC1=O)C2(C)C (stereo not drawn) [Compound 608]	–	4.08 ± 0.34	–	–	–
CC12CC(Cl)C(CC1=O)C2(C)C (stereo not drawn) [Compound 610]	2.72 ± 0.36	–	–	1.32 ± 0.06	–
CC12CC(O)C(CC1=O)C2(C)C (stereo not drawn) [Compound 616]	–	2.70 ± 0.63	1.15 ± 0.83	0.94 ± 0.30	–
CC(=O)OC1CC2(C)C(=O)CC1C2(C)C (stereo not drawn) [Compound 626]	–	–	2.05 ± 0.54	–	–
CC1(C)C2CC(=O)C1(C)C(Cl)C2 (stereo not drawn) [Compound 631]	2.85 ± 0.58	3.30 ± 0.79	–	0.70 ± 0.32	–
CC1(C)C2CC(=O)C1(C)C(Br)C2 (stereo not drawn) [Compound 633]	2.64 ± 0.19	2.04 ± 0.63	0.96 ± 0.92	–	The average of total anesthesia time (Male ICR mice; [4]): 3.35 ± 0.90 min
CC1(C)C2CC(=O)C1(C)C(Cl)(Br)C2 (stereo not drawn) [Compound 643]	1.01 ± 0.29	–	2.80 ± 0.67	–	–
CC1CC2CC(=O)C1(C)C2(C)C (stereo not drawn) [Compound 661]	2.39 ± 0.75	2.89 ± 0.64	–	0.55 ± 0.76	–
[2H]C1C(=O)C2(C)CCC1C2(C)C (stereo not drawn) [Compound 664]	–	–	–	–	The average of total anesthesia time (Male ICR mice; [4]): 3.20 ± 0.77 min
